Assay results: patent publication US20240262832A1, “SMALL MOLECULE MODULATORS OF GLUCOCEREBROSIDASE ACTIVITY AND USES THEREOF” (Vanqua Bio, Inc., priority 2021, published 2024)

Molecular target: T1, GCase (Homo sapiens, UniProt P04062)
T1 construct: endogenous in cells; host or cells: HeLa cells
T1 sequence (P04062 40-536): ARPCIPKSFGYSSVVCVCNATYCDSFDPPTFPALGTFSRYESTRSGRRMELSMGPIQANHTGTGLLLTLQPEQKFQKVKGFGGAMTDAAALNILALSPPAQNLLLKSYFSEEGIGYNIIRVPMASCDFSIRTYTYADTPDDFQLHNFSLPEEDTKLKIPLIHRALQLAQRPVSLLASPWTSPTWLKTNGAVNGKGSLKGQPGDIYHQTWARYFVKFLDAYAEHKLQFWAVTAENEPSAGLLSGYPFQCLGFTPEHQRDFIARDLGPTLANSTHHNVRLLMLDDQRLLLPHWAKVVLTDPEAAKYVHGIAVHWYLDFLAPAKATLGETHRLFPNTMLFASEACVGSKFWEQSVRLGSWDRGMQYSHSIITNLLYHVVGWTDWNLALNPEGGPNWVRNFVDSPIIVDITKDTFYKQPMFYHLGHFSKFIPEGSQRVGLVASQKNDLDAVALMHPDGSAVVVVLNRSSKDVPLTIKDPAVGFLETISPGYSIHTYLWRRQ
Assay: activation of GCase in a live cell PFB assay in HELA cells
Assay type: cell-based

SMILES	EC50 [µM]
CC(C)c1cc(C(=O)N2CCCC(COc3ccccc3)C2)c(C(C)C)o1 (centres unmarked) [Compound 207]	< 10
O=C(c1nnc(C(F)(F)c2ccccc2)o1)N1CCCC(COc2ccccc2)C1 (centres unmarked) [Compound 51, (5-(Difluoro(phenyl)methyl)-1,3,4-oxadiazol-2-yl)(3-(phenoxymethyl)piperidin-1-yl)methanone]	> 100
CC(C)(c1ccccc1)c1nnc(C(=O)N2CCCC(COc3ccccc3)C2)o1 (centres unmarked) [Compound 24, (3-(Phenoxymethyl)piperidin-1-yl)(5-(2-phenylpropan-2-yl)-1,3,4-oxadiazol-2-yl)methanone]	10 to 50
O=C(Cc1cc(Cl)cs1)N1CCCC(COc2ccccc2)C1 (centres unmarked) [Compound 161]	10 to 50
COCCn1ncc2ncc(N3C[C@@H](C)C[C@H](COc4cccnc4C(F)(F)F)C3)nc21 [Compound 230b, 1-(2-Methoxyethyl)-6-((3S,5S)-3-methyl-5-(((2-(trifluoromethyl)pyridin-3-yl)oxy)methyl)piperidin-1-yl)-1H-pyrazolo[3,4-b]pyrazine]	< 10
FC(F)Cn1ncc2ncc(N3CCCC(F)(COc4cccc(C(F)(F)F)n4)C3)nc21 (centres unmarked) [Compound 43, 2-({1-[1-(2,2-Difluoroethyl)-1H-pyrazolo[3,4-b]pyrazin-6-yl]-3-fluoropiperidin-3-yl}methoxy)-6-(trifluoromethyl)pyridine]	10 to 50
CCCCC1(C(=O)N2CCCC(COc3ccccc3)C2)CCC1 (centres unmarked) [Compound 177]	10 to 50
O=C(c1ccc(F)c(OC(F)(F)F)c1)N1CCCC(COc2ccccc2)C1 (centres unmarked) [Compound 217]	10 to 50
CCCCC[C@H]1CC[C@H](C(=O)N2CCCC(COc3ccccc3)C2)CC1 (some centres unmarked) [Compound 178]	< 10
Cc1ccccc1OCC1CCCN(C(=O)c2cnc3c(cnn3-c3ccccc3)n2)C1 (centres unmarked) [Compound 67, (1-phenyl-1H-pyrazolo[3,4-b]pyrazin-5-yl)(3-((o-tolyloxy)methyl)piperidin-1-yl)methanone]	10 to 50
FC(F)Cn1ncc2ncc(N3CCCC(COc4cccnc4Cl)C3)nc21 (centres unmarked) [Compound 59, 2-Chloro-3-({1-[1-(2,2-difluoroethyl)pyrazolo[3,4-b]pyrazin-6-yl]piperidin-3-yl}methoxy) pyridine]	< 10
O=C(CCc1cccc(C(F)(F)F)c1)N1CCCC(COc2ccccc2)C1 (centres unmarked) [Compound 150]	10 to 50
O=C(Cc1ccc(OC(F)F)c(F)c1)N1CCCC(COc2ccccc2)C1 (centres unmarked) [Compound 198]	10 to 50
FC(F)Cn1ncc2ncc(N3CCCC(COc4nccnc4Cl)C3)nc21 (centres unmarked) [Compound 69, 6-(3-(((3-Chloropyrazin-2-yl)oxy)methyl)piperidin-1-yl)-1-(2,2-difluoroethyl)-1H-pyrazolo[3,4-b]pyrazine]	> 100
CC(C)c1cc(C(=O)N2C[C@@H]3[C@@H](COc4cccc(C(F)(F)F)n4)[C@@H]3C2)[nH]n1 [Compound 75, (1R,5S,6S)-3-[3-(Propan-2-yl)-1H-pyrazole-5-carbonyl]-6-({[6-(trifluoromethyl)pyridin-2-yl]oxy}methyl)-3-azabicyclo[3.1.0]hexane]	10 to 50
CC(C)c1cc(C(=O)N2C[C@@H]3[C@@H](COc4cccnc4C(F)(F)F)[C@@H]3C2)[nH]n1 [Compound 110, (1R,5S,6R)-3-[3-(Propan-2-yl)-1H-pyrazole-5-carbonyl]-6-({[2-(trifluoromethyl)pyridin-3-yl]oxy}methyl)-3-azabicyclo[3.1.0]hexane]	50 to 100
C[C@@H]1C[C@H](COc2cccnc2C(F)(F)F)CN(c2cnc3cnn(CC(F)F)c3n2)C1 [Compound 94, 1-(2,2-Difluoroethyl)-6-((3R,5S)-3-methyl-5-(((2-(trifluoromethyl)pyridin-3-yl)oxy)methyl)piperidin-1-yl)-1H-pyrazolo[3,4-b]pyrazine]	< 10
O=C(CC12CCC(CC1)C2)N1CCCC(COc2ccccc2)C1 (centres unmarked) [Compound 213]	10 to 50
C[C@@H]1C[C@H](COc2cccnc2C(F)(F)F)CN(c2cnc3cnn(CC(F)F)c3n2)C1 [Compound 47a, 1-(2,2-Difluoroethyl)-6-((3R,5S)-3-methyl-5-(((2-(trifluoromethyl)pyridin-3-yl)oxy)methyl)piperidin-1-yl)-1H-pyrazolo[3,4-b]pyrazine]	< 10
CC1CCC(COc2cccnc2C(F)(F)F)CN1c1cnc2cnn(CC(F)F)c2n1 (centres unmarked) [Compound 31, 1-(2,2-Difluoroethyl)-6-(2-methyl-5-(((2-(trifluoromethyl)pyridin-3-yl)oxy)methyl)piperidin-1-yl)-1H-pyrazolo[3,4-b]pyrazine]	< 10
Cc1ccccc1CCC1CCCN(C(=O)c2cnn(-c3ccccc3)n2)C1 (centres unmarked) [Compound 15, (3-(2-methylphenethyl)piperidin-1-yl)(2-phenyl-2H-1,2,3-triazol-4-yl)methanone]	10 to 50
COc1ccccc1OCC1CCCN(C(=O)c2c(-c3ccccc3)n(C)c3nccnc23)C1 (centres unmarked) [Compound 235, (3-((2-Methoxyphenoxy)methyl)piperidin-1-yl)(5-methyl-6-phenyl-5H-pyrrolo[2,3-b]pyrazin-7-yl)methanone]	10 to 50
O=C(N1CCCC(COc2ccccc2)C1)C12CCC(C(F)F)(CC1)C2 (centres unmarked) [Compound 10]	10 to 50
O=C(c1cnn(-c2ccc(Cl)cc2)n1)N1CCCC(COc2ccccc2)C1 (centres unmarked) [Compound 147]	10 to 50
Cc1cnccc1-c1ccc(C(=O)N2CCCC(COc3ccccc3)C2)s1 (centres unmarked) [Compound 142]	< 10
O=C(c1ccc2cc[nH]c2c1)N1CC2CC2(COc2cccnc2C(F)(F)F)C1 (centres unmarked) [Compound 261, 6-[1-({[2-(Trifluoromethyl)pyridin-3-yl]oxy}methyl)-3-azabicyclo[3.1.0]hexane-3-carbonyl]-1H-indole]	> 100

Continued, values first:

EC50 [µM]	SMILES
10 to 50	FC(F)Cn1ncc2ncc(N3CCC(COc4ncccc4C(F)(F)F)CC3)nc21 [Compound 313, 1-(2,2-Difluoroethyl)-6-(4-(((3-(trifluoromethyl)pyridin-2-yl)oxy)methyl)piperidin-1-yl)-1H-pyrazolo[3,4-b]pyrazine]
< 10	COc1ccc(OCC2CCN(Cc3cscn3)CC2)cc1 [Compound 477]
< 10	C[C@@H]1CC[C@H](COc2ccncc2C(F)(F)F)CN1c1cnc2cnn(CC(F)F)c2n1 [Compound 282, 1-(2,2-Difluoroethyl)-6-((2R,5S)-2-methyl-5-(((3-(trifluoromethyl)pyridin-4-yl)oxy)methyl)piperidin-1-yl)-1H-pyrazolo[3,4-b]pyrazine]
> 100	COc1ccc(OCC2CCN(c3nc(N)nc(C)c3C)CC2)cc1 [Compound 458]
50 to 100	CCCc1[nH]ncc1C(=O)N1CCC(OCc2ccccc2)CC1 [Compound 465]
10 to 50	FC(F)Cn1ncc2ncc(N3CCC(COc4cc(C(F)(F)F)ccn4)CC3)nc21 [Compound 324, 2-({1-[1-(2,2-Difluoroethyl)-1H-pyrazolo[3,4-b]pyrazin-6-yl]piperidin-4-yl}methoxy)-4-(trifluoromethyl)pyridine]
< 10	COC1CC(COc2cccnc2C(F)(F)F)CN(c2cnc3cnn(CC(F)F)c3n2)C1 (centres unmarked) [Compound 291, 1-(2,2-Difluoroethyl)-6-(3-methoxy-5-(((2-(trifluoromethyl)pyridin-3-yl)oxy)methyl)piperidin-1-yl)-1H-pyrazolo[3,4-b]pyrazine]
10 to 50	O=C(c1ccc2cc[nH]c2c1)N1CCC(Oc2ccncc2C(F)(F)F)CC1 [Compound 318, (1H-Indol-6-yl)(4-((3-(trifluoromethyl)pyridin-4-yl)oxy)piperidin-1-yl)methanone]
10 to 50	FC(F)Cn1ncc2ncc(N3CC4CC4(COc4cccc(C(F)(F)F)n4)C3)nc21 (centres unmarked) [Compound 284, 3-[1-(2,2-Difluoroethyl)-1H-Pyrazolo[3,4-b]Pyrazin-6-Yl]-1-({[6-(Trifluoromethyl)Pyridin-2-Yl]Oxy}Methyl)-3-Azabicyclo[3.1.0]Hexane]
10 to 50	FC(F)Cn1ncc2ncc(N3CC4CC4(COc4cc(C(F)(F)F)ccn4)C3)nc21 (centres unmarked) [Compound 285, 3-[1-(2,2-Difluoroethyl)-1H-pyrazolo[3,4-b]pyrazin-6-yl]-1-({[4-(trifluoromethyl)pyridin-2-yl]oxy}methyl)-3-azabicyclo[3.1.0]hexane]
> 100	COc1ccc(OCC2CCN(C(=O)c3ccc(CN4CCCC4)o3)CC2)cc1 [Compound 457]
< 10	COc1ccc(OCC2CCN(Cc3c[nH]c(C#N)c3)CC2)cc1 [Compound 456]
50 to 100	CO[C@@H]1CCN(c2cnc3cnn(CC(F)F)c3n2)C[C@@H]1COc1cccnc1C(F)(F)F [Compound 298a, 1-(2,2-Difluoroethyl)-6-((3R,4R)-4-methoxy-3-(((2-(trifluoromethyl)pyridin-3-yl)oxy)methyl)piperidin-1-yl)-1H-pyrazolo[3,4-b]pyrazine]
10 to 50	O=c1cc(-c2ccccc2)cc(N2CCC[C@H](COc3cccnc3C(F)(F)F)C2)[nH]1 [Compound 300, (S)-4-Phenyl-6-(3-(((2-(trifluoromethyl)pyridin-3-yl)oxy)methyl)piperidin-1-yl)pyridin-2(1H)-one]
10 to 50	c1ccc(OC2CCN(c3cnc4ccccc4n3)CC2)cc1 [Compound 414, 2-(4-Phenoxypiperidin-1-yl)quinoxaline]
> 100	CCc1noc(CNC(=O)N2CCC(COc3ccc(OC)cc3)CC2)n1 [Compound 436]
50 to 100	CCC(C)(C)C(=O)N1CCC(COc2cccc(C(F)(F)F)n2)CC1 [Compound 350]
50 to 100	O=C(c1cnn[nH]1)N1CCC(COc2ccc3c(c2)CCC3)CC1 [Compound 423]
